This experiment has as its target T1, human DGAT1 (Homo sapiens, UniProt O75907).
T1 construct: FLAG (N); made in house; host or cells: SF9 insect cells (baculovirus, pFastBac); total cell membranes used as the enzyme source
T1 sequence (O75907 1-488): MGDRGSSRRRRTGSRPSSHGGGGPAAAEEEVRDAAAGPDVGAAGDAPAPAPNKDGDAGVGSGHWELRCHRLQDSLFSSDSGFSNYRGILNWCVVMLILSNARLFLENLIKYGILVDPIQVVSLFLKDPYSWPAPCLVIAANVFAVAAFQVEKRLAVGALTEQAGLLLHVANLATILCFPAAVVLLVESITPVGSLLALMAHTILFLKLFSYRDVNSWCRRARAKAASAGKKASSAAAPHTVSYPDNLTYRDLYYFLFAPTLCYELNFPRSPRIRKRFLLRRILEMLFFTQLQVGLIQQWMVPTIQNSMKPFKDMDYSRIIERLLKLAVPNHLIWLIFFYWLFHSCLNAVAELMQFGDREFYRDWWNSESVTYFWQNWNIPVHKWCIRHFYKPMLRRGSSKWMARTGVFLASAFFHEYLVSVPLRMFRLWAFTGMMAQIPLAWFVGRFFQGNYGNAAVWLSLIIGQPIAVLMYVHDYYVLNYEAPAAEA
The experiment can be described thus: DGAT1 FlashPlate inhibition assay with DGAT1 membrane preparations. The class given is biochemical. The note with it: IC50 values expressed in M; pIC50 = -logIC50; inhibition of DGAT1 activity. From the text: The inhibiting activity of the present compounds on DGAT1 activity was screened in a single well procedure assay using DGAT1 comprising membrane preparations and DGAT1 substrate comprising micelles and determining formed radio-active triacylglycerol coming in close proximity of a flashplate surface by radioluminescence.
Said assay is described in full detail in WO2006/067071, the content of which is incorporated herein by reference.
By DGAT1 activity is meant the transfer of coenzyme A activated fatty acids to the 3-position of 1,2-diacylglycerols, thus forming a triglyceride molecule, by enzyme DGAT1.
human DGAT1 (NM012079.2) was cloned into the pFastBac vector, containing translation start, a FLAG-tag at the N-terminus as described in literature and a viral Kozak sequence (AAX) preceding the ATG to improve expression in insect cells. Expression was done as described in literature (Cases, S., Smith, S. J., Zheng, Y., Myers H. M., Lear, S. R., Sande, E., Novak, S., Collins, C., Welch, C. B., Lusis, A. J., Erickson, S. K. and Farese, R. V. (1998) Proc. Natl. Acad. Sci. USA 95, 13018-13023.) using SF9 cells.
72 h transfected SF9 cells were collected by centrifugation (13000 rpm-15 min-4° C.) and lysed in 2×500 ml lysis buffer (0.1M Sucrose, 50 mM KCl, 40 mM KH2PO4, 30 mM EDTA pH 7.2. Cells were homogenized by cell disruptor. After centrifugation 1380 rpm-15 min-4° C. (SN discarded), pellet was resuspended in 500 ml lysis buffer and total cell membranes collected by ultracentrifugation at 34000 rpm (100 000 g) for 60 min (4° C.). The collected membranes were resuspended in lysis buffer, divided in aliquots and stored with 10% glycerol at −80° C. until use.
Add 1 ml dioleoyl-sn-glycerol (10 mg/ml) to 10 ml of L-α-phosphatidylcholine (1 mg/ml) and 10 ml of L-α-phosphatidyl-L-serine (1 mg/ml) in a thick glass recipient. Evaporate under nitrogen and put on ice for 15 minutes. Reconstitute in 10 ml Tris/HCl (10 mM, pH 7.4) by sonication on ice. The sonification process consists of sonification cycles of 10 seconds in the sonification bath followed by 10 seconds cool down on ice and repeating this sonification cycle till a homogeneous solution is obtained (takes about 15 minutes). The thus obtained micelles are stored at −20° C. till later use and contain DAG at a final concentration of 1.61 mM.
• 50 mM Tris-HCl (pH 7.4), 150 mM MgCl2, 1 mM EDTA, 0.2% BSA. b) N-ethylmaleimide, 5M • Dissolve 5 g into a final volume of 8 ml DMSO 100% and store at −20° C. in aliquots till later use. c) Substrate mix (for 1 384 well plate=3840 μl) • 612 μl micelles stock (51 μM final) • 16.6 μl oleoylCoA 9.7 mM • 23 μl [^3H]-oleoylCoA (49 Ci/mmol, 500 μCi/ml) • 3188.4 μl Tris pH 7.4, 10 mM d) Enzyme mix (for 1 384 well plate=3520 μl) (5 μg/ml) • Add 11.73 μl of DGAT membrane stock (1500 μg/ml stock) to 3508 μl assay buffer. e) Stop mix (for 1 384 well plate=7.68 ml) (250 mM) • Add 384 μl of N-ethylmaleimide (5M) to 3.456 ml DMSO 100%, and further dilute 3.84 ml of said solution with 3.84 ml DMSO 10%. Method
DGAT activity in membrane preparations was assayed in 50 mM Tris-HCl (pH 7.4), 150 mM MgCl2, 1 mM EDTA and 0.2% BSA, containing 50 μM DAG, […] PC/PS and 8.4 μM [^3H]-oleoylCoA (at a specific activity of 30 nCi/well) in a final volume of 50 μl in 384-well format using the red shifted Basic Image FlashPlate™ (Perkin Elmer Cat. No. SMP400).
In detail, 10 μl enzyme mix and 10 μl substrate mix were added to 30 μl of assay buffer, optionally in the presence of 1 μl DMSO (blank and controls) or 1 μl of the compound to be tested. This reaction mixture was incubated for 120 minutes at 37° C. and the enzymatic reaction stopped by adding 20 μl of the stop mix. The plates were sealed and the vesicles allowed to settle overnight at room temperature. Plates were centrifuged for 5 minutes at 1500 rpm and measured in Leadseeker. […]

pIC50: −log10 of the molar value.

By pIC50 is commonly meant the negative decadic logarithm of the IC50, by convention in mol/L. A higher pIC50 goes with a small IC50.

As to `Cc1cccc(Cl)c1NC(=O)N1CCC(c2ccc(NC(=O)c3ccccc3-c3ccc(C(F)(F)F)cc3)cc2)CC1` [Compound 113], the pIC50 was 5.97. `O=C(Nc1ccc(N2CCN(C(=O)Nc3ccccc3[N+](=O)[O-])CC2)cc1)c1ccccc1-c1ccc(C(F)(F)F)cc1` [Compound 92] gave a pIC50 of 5.63.

Compound `CC(C)(C)OC(=O)N1CCCC(C(=O)Nc2ccc(C3CCN(C(=O)Nc4c(Cl)cccc4Cl)CC3)cc2)C1` (centres unmarked) [Compound 52] gave a pIC50 of 7.76. For `Cc1n[nH]c(C)c1-c1ccccc1C(=O)Nc1ccc(N2CCN(C(=O)Nc3c(Cl)cccc3Cl)CC2)cc1` [Compound 26] the value was 6.40. For `Cc1ccc(C(=O)Nc2ccc(N3CCN(C(=O)Nc4c(Cl)cccc4Cl)CC3)cc2)c(-c2ccc(C(F)(F)F)cc2)c1` [Compound 66], the pIC50 is 7.23.

For `Cc1cc(C)c(NC(=O)N2CCC(c3ccc(NC(=O)c4ccccc4-c4ccc(C(F)(F)F)cc4)cc3)CC2)c(C)c1` [Compound 112], the pIC50 was 6.57. As to `O=C(Nc1ccc(N2CCN(C(=O)Nc3c(Cl)cccc3Cl)CC2)cc1)c1cccc(N2CCCC2=O)c1` [Compound 13], the pIC50 is 7.96. Compared with the last compound, the pIC50 is 1.39 log units higher.

Compound `O=C(Nc1ccc(N2CCN(C(=O)Nc3c(Cl)cccc3Cl)CC2)cc1)c1ccc(N2CCOCC2)cc1` [Compound 38] gave a pIC50 of 7.96. The figure for `CSc1ccccc1NC(=O)N1CCN(c2ccc(NC(=O)c3ccccc3-c3ccc(C(F)(F)F)cc3)cc2)CC1` [Compound 93] is 5.32; for `O=C(Nc1ccc(N2CCN(C(=O)Nc3c(Cl)cccc3Cl)CC2)cc1)c1ccccc1-c1ccco1` [Compound 4] it is 7.61; for `CCc1cccc(C)c1NC(=O)N1CCN(c2ccc(NC(=O)c3ccccc3-c3ccc(C(F)(F)F)cc3)cc2)CC1` [Compound 83] it is 5.81.

With `CC(C)c1ccccc1NC(=O)N1CCC(c2ccc(NC(=O)c3ccccc3-c3ccc(C(F)(F)F)cc3)cc2)CC1` [Compound 109], the pIC50 was 5.02.

`Nc1ccccc1C(=O)Nc1ccc(C2CCN(C(=O)Nc3c(Cl)cccc3Cl)CC2)cc1` [Compound 10] gave a pIC50 of 6.49. With `COC(=O)c1ccccc1NC(=O)N1CCN(c2ccc(NC(=O)c3ccccc3-c3ccc(C(F)(F)F)cc3)cc2)CC1` [Compound 86], the pIC50 was 5.01. Compound `Cc1nc(-c2ccc(C(=O)Nc3ccc(N4CCN(C(=O)Nc5c(Cl)cccc5Cl)CC4)cc3)cc2)no1` [Compound 30] had a pIC50 of 8.35. On to `CC(C)(C)c1ccc(-c2ccccc2C(=O)Nc2ccc(N3CCN(C(=O)Nc4c(Cl)cccc4Cl)CC3)cc2)cc1` [Compound 35], for which the pIC50 was 6.93.

`O=C(Nc1ccc(C2CCN(C(=O)Nc3c(Cl)cccc3Cl)CC2)cc1)C1CNC1` [Compound 46] gave a negative logarithm of the IC50 (pIC50) of 5.62. For `Cc1nnnn1-c1cccc(C(=O)Nc2ccc(N3CCN(C(=O)Nc4c(Cl)cccc4Cl)CC3)cc2)c1` [Compound 31] the value was 6.57; for `Cc1cccc(C(=O)Nc2ccc(C3CCN(C(=O)Nc4c(Cl)cccc4Cl)CC3)cc2)c1-c1ccc(C(F)(F)F)cc1` [Compound 59], 5.69. The figure for `CN(C)c1ccc(NC(=O)N2CCN(c3ccc(NC(=O)c4ccccc4-c4ccc(C(F)(F)F)cc4)cc3)CC2)cc1` [Compound 73] is 5.45; for `Cc1nc(C(=O)Nc2ccc(C3CCN(C(=O)Nc4c(Cl)cccc4Cl)CC3)cc2)c(-c2ccc(C(C)C)cc2)s1` [Compound 3] it is 5.93. In turn, `O=C(Nc1cccc(N2CCCC2)c1)c1ccc(N2CCN(C(=O)Nc3c(Cl)cc(CCN4CCCC4)cc3Cl)CC2)cc1` [Compound 129] showed a pIC50 of 8.27. This pIC50 lies 2.34 log units higher than the previous one. Compound `O=C(Nc1ccc(N2CCN(C(=O)Nc3c(Cl)cccc3Cl)CC2)cc1)c1cccc(N2CCCC2)c1` [Compound 12] gave a pIC50 of 8.87.

With `CC(C)(C)c1ccc(-c2ccccc2C(=O)Nc2ccc(C3CCN(C(=O)Nc4c(Cl)cccc4Cl)CC3)cc2)cc1` [Compound 62], the pIC50 is 6.26. As for `Cc1cc(Br)cc(C)c1NC(=O)N1CCC(c2ccc(NC(=O)c3ccccc3-c3ccc(C(F)(F)F)cc3)cc2)CC1` [Compound 115], the pIC50 is 5.71. As to `O=C(Nc1ccc(N2CCN(C(=O)Nc3c(Cl)cccc3Cl)CC2)cc1)c1ccccc1N1CCS(=O)(=O)CC1` [Compound 42], the negative-log IC50 (pIC50) is 5.93. On to `O=C(Nc1ccc(N2CCN(C(=O)Nc3ccc4c(c3)OCCO4)CC2)cc1)c1ccccc1-c1ccc(C(F)(F)F)cc1` [Compound 106], for which the pIC50 is 5.14. This pIC50 is 0.79 log units lower than that of the compound before. For `COC(=O)c1cccc(C(=O)Nc2ccc(N3CCN(C(=O)Cc4c(Cl)cc(CN5CCCC5)cc4Cl)CC3)cc2)c1` [Compound 145] the value was 6.95; for `O=C(Nc1ccc(C2CCN(C(=O)Nc3c(Cl)cccc3Cl)CC2)cc1)C1CCCNC1` (centres unmarked) [Compound 49], 5.05; for `Cc1ccccc1NC(=O)N1CCN(c2ccc(NC(=O)c3ccccc3-c3ccc(C(F)(F)F)cc3)cc2)CC1` [Compound 74], 5.96. The compound `O=C(Nc1ccc(N2CCN(C(=O)Nc3ccccc3Cl)CC2)cc1)c1ccccc1-c1ccc(C(F)(F)F)cc1` [Compound 89] gave a pIC50 of 5.77. `CCOc1ccccc1NC(=O)N1CCN(c2ccc(NC(=O)c3ccccc3-c3ccc(C(F)(F)F)cc3)cc2)CC1` [Compound 81] showed a pIC50 of 5.09. Compound `O=C(Nc1ccc(N2CCN(C(=O)Nc3c(Cl)cccc3Cl)CC2)cc1)c1ccccc1-c1nc2ccccc2[nH]1` [Compound 45] showed a pIC50 of 7.25.

Turning to `CC(C)c1ccccc1NC(=O)N1CCN(c2ccc(NC(=O)c3ccccc3-c3ccc(C(F)(F)F)cc3)cc2)CC1` [Compound 77], the pIC50 was 5.35. The figure for `Cc1ccccc1NC(=O)N1CCC(c2ccc(NC(=O)c3ccccc3-c3ccc(C(F)(F)F)cc3)cc2)CC1` [Compound 7] is 5.46.

Consider `CN(C)c1ccc(NC(=O)N2CC=C(c3ccc(NC(=O)c4ccccc4-c4ccc(C(F)(F)F)cc4)cc3)CC2)cc1` [Compound 124], for which the pIC50 was 5.17. The figure for `Cc1ccc([N+](=O)[O-])c(NC(=O)N2CCC(c3ccc(NC(=O)c4ccccc4-c4ccc(C(F)(F)F)cc4)cc3)CC2)c1C` [Compound 116] is 5.66; for `CCOC(=O)c1cccc(C(=O)Nc2ccc(N3CCN(C(=O)Nc4c(Cl)cccc4Cl)CC3)cc2)c1` [Compound 125] it is 8.55.

Values taken from patent US9227935B2, “Piperidine/piperazine derivatives” (Janssen Pharmaceutica N.V., priority 2007, dated 2016).
